How the values were obtained:
MDA-MB-468 cells [1] = assay: MTT viability, EJ1 in combination with pathway inhibitors or ROS scavenger; format: cell-based; details: MDA-MB-468, 20 μmol/l EJ1 plus inhibitor
Protocol: (a) MDA-MB-468 cells were treated with either 20 μmol/l CP (A-D) or 20 μmol/l EJ1 (E-H) for 0 minutes (A, E), 15 minutes (B, F), 60 minutes (C, G), or 16 hours (D, H). Arrows indicate membrane blebs and arrowheads indicate intracellular vacuoles. (b) BxPC3 cells were serum starved overnight, then treated with 20 μmol/l EJ1 and 50 ng/ml Texas-Red-labeled EGF, and imaged for 30 minutes with an Olympus IX71 deconvolution microscope. Panels A-F are bright field images, D′-F′ are red channel images (Texas-Red-labeled EGF). Arrowheads indicate locations of EGF accumulation on membrane protrusions. (c) Diagram depicts Ca^2+/CaM-regulated signaling pathway, and inhibitors acting at different targets are indicated. (d) MDA-MB-468 cells were pretreated with 50 μmol/l W-13 (D-F), 10 μmol/l ML-7 (G-I), or 10 μmol/l Y-27632 (J-L) in complete medium at 37° C. for 30 minutes and then treated with vehicle, 20 μmol/l CP, or 20 μmol/l EJ1 in combination with W-13, ML-7, or Y-27632 in complete medium at 37° C. for 15 minutes. Images represent the bright field images. Arrows indicate membrane blebbing. (e) MDA-MB-468 cells were untreated (UNTX) or treated with water (Vehicle), 20 μmol/l EJ1, 10 μmol/l Y-27632, or 10 μmol/l ML-7 alone or EJ1 in combination with Y-27632 or ML-7, and the viability was assessed by the MTT assay. **P<0.01 (Student's t-test). Error bars, mean±SD. (f) MDA-MB-468 cells were either in serum-free medium (SF) or stimulated with 100 ng/ml EGF (EGF) and then incubated with water (Vehicle), 20 μmol/l CP, 20 μmol/l EJ1, 2 μmol/l ionomycin, 50 μmol/l W-13, 100 μmol/l KN-93, or EJ1 in combination with ionomycin for 15 minutes. Lysates were immunoblotted with antibodies as indicated. (g) Stable, neomycin-selected NIH3T3 cell lines were created, expressing either Rac1 wild-type (Rac1-WT) or Rac1 constitutively active mutant (Rac1-Q61L). Cells were treated with water (Vehicle), 20 μmol/l CP, or 20 μmol/l EJ1, and the viability was assessed by MTT. ***P<0.001 (Student's t-test). Error bars, mean±SD.
(§1) (a) MDA-MB-468 cells were incubated in serum-free media with 200 nmol/l MitoTracker Red CMXRos and 5 μg/ml Hoechst 33342 nuclear stain, followed by either 20 μmol/l CP (A-B′) or 20 μmol/l EJ1 (C-D′), and imaged at 0 minutes (A, A′; and C, C′) or at 5 minutes (B, B′; and D, D′). (b) MDA-MB-468 cells were incubated with 1 μmol/l JC-1, followed by 20 μmol/l CP, 20 μmol/l EJ1, or 50 μmol/l CCCP. Results were calculated as the ratio of the 514/590 nm to 514/529 nm fluorescences and the ratio for CP-treated sample was set as 1. *P<0.05, Student's t-test. Error bars, mean±SD. […] Cells were then sorted by flow cytometer and analyzed by Cellquest Pro 4.0 software. The results are expressed as the percentage of DCFH fluorescence-positive cells. *P<0.05, Student's t-test. […]

MDA-MB-468 cells [2] = assay: Intracellular ROS by flow cytometry, DCFH-DA; format: cell-based; details: 20 μmol/l EJ1, 0.5 mmol/l NAC
Protocol: as §1, with “mean±SD. (c) T47D cells were treated with MitoTracker (shown in D-F and F′) and Hoechst 33342 as in (a) and incubated with 20 μmol/l FITC-labeled EJ1 (shown in A-C and C′).” for “mean±SD.”
Generation of intracellular ROS was evaluated by flow cytometry using the 2′,7′-dichlorofluorescein diacetate probe (Invitrogen). Fluorescent cells were analyzed by a FACScan flow cytometer (BD Biosciences) at the Flow Cytometry Shared Service in the Arizona Cancer Center, and the excitation/emission wavelengths were set at 488 and 525 nm, respectively.

## CC(=O)N[C@@H](CS)C(=O)O [NAC, N-acetyl cysteine]
MDA-MB-468 cells [1]
  effect of co-treatment on EJ1-induced loss of cell viability (MTT): significantly rescue EJ1-induced cell death
MDA-MB-468 cells [2]
  intracellular ROS levels (DCF fluorescence): significantly reduced EJ1-induced ROS levels

Reference: US10066004B2 (ARIZONA CANCER THERAPEUTICS, LLC, priority 2010, dated 2018)
